Source: patent US20220017468A1, “ISOQUINOLINE COMPOUNDS AND THEIR USE IN TREATING AhR IMBALANCE” (Dermavant Sciences GmbH, priority 2020, published 2022)
“And” between values parts separate entries of the source, which are not always exact repeats. Equal entries are not always repeated. Where two headings read alike, the source gives them in different places.

Assays:
[1] = metabolic stability in hepatocytes, mouse; assay type: in vitro ADME
[2] = metabolic stability in liver microsomes, minipig; assay type: in vitro ADME
[3] = metabolic stability in liver microsomes, human; assay type: in vitro ADME
[4] = blood-to-plasma ratio and blood cell association, rat; assay type: in vitro ADME
[5] = metabolic stability in hepatocytes, rat; assay type: in vitro ADME
[6] = metabolic stability in liver microsomes, rabbit; assay type: in vitro ADME
[7] = metabolic stability in liver microsomes, rat; assay type: in vitro ADME
[8] = tested on: AhR pathway (CYP1A1 mRNA); assay: sRICA ex vivo human skin explant, CYP1A1 induction; assay type: cell-based; settings: 1 μM or 10 μM in the baso-lateral media
Description: (§1) A liquid-air interface skin explant culture with the in situ activation of immunocompetent cells, termed sRICA for skin-Resident Immune Cell Activation model was previously reported (Smith et al., (2016) PLoS One, 11(2)). In this assay, specific cytokine profiles of inflammatory skin diseases can be induced, including the Th17-type cytokines, IL17A, IL17F and IL22. Reduction of biomarkers in this assay indicates biological activity of the test compound.
(§2) Ex vivo human skin obtained from abdominoplasty surgery was processed to remove fat and dermatomed the tissue to ˜750 microns. Dermatomed skin was then cleaned in two serial rinses of 5-10 minutes each in room temperature PBS containing an antibiotic/antimycotic solution.
(§3) Skin was treated as asceptic from this point on; all further manipulations were performed in a class II biosafety cabinet. […]
(§4) The harvested skin tissue were stored in RNAlater until use. […] RNA was diluted to a concentration of 23.6 ng/ul (total of 100 ng RNA), and was used as template in a 10 uL PCR volume using Applied Biosciences RNA-to-CT 1 Step kit (AB Catalog # 4392938) and the specific TaqMan probes foreach gene to be quantified. […]
(§5) RNA levels of gene of interest's Relative Expression was calculated using the Delta Delta CT formula.
(§6) RNA was isolated from the tissue harvested at 24 hr and 48 hr post stimulation and gene expression was assessed by quantitative PCR. […]

[9] = metabolic stability in hepatocytes, rabbit; assay type: in vitro ADME
IL17A mRNA = assay: sRICA ex vivo human skin explant, IL17A expression; assay type: cell-based; settings: 10 μM, Th17 polarizing conditions
Description: as §1, §2, §3, §4, §5, §6

Minipig Plasma Proteins = assay: plasma protein binding by Rapid Equilibrium Dialysis, minipig; assay type: in vitro ADME
Description: (§7) The blood-to-plasma ratios were similar across species (1.22-1.36, Table 9).

[10] = as above; assay type: in vitro ADME; settings: minipig, plasma
Description: as §7

## CC(C)c1c(O)cc(-c2cc3ccccc3cn2)cc1O
[1]
  half-life at 0.5 μM: 8.39 min
[1]; 0.5 μM
  CLint, hep: 22.3 mL/min/g liver
[1]; read-out: Scaled CLint, hep
  CLint scaled at 0.5 μM: 1140 mL/min/kg
[2]; minipig liver microsomes, 0.5 μM
  CLint, mic: 3.01 mL/min/g liver
[2]; minipig liver microsomes, 0.5 μM, read-out: Scaled CLint, mic
  CLint scaled at 0.5 μM: 50.3 mL/min/kg
[2]; minipig, microsomes
  half-life at 0.5 μM: 24.2 min
[3]; human liver microsomes, 0.5 μM
  CLint, mic: 1.35 mL/min/g liver
[3]; human liver microsomes, 0.5 μM, read-out: Scaled CLint, mic
  CLint scaled at 0.5 μM: 33.1 mL/min/kg
[3]; human, microsomes
  half-life at 0.5 μM: 40.9 min
[4]; 1 μM
  % Blood Cell Association Mean (% CV): 60.2 (4.37) %
  % Blood Cell Association Replicate: 58.9% and 58.3% and 63.1%
  Blood-to-plasma Ratio Replicate: 1.29 and 1.46
  Mean % Blood Stability: 104%
[4]; read-out: Blood-to-plasma Ratio Mean (% CV)
  blood plasma ratio at 1 μM: 1.36
[4]; read-out: Blood-to-plasma Ratio Replicate
  blood plasma ratio at 1 μM: 1.31
[5]; rat
  in vitro-to-in vivo extrapolation (IVIVE) ratio: 0.45
[5]; rat hepatocytes, 0.5 μM
  CLint, hep: 44.4 mL/min/g liver
  half-life at 0.5 μM: 3.37 min
[5]; rat hepatocytes, 0.5 μM, read-out: Scaled CLint, hep
  CLint scaled at 0.5 μM: 1600 mL/min/kg
[6]; rabbit liver microsomes, 0.5 μM
  CLint, mic: 11.9 mL/min/g liver
[6]; rabbit liver microsomes, 0.5 μM, read-out: Scaled CLint, mic
  CLint scaled at 0.5 μM: 367 mL/min/kg
[6]; rabbit, microsomes
  half-life at 0.5 μM: 6.1 min
[7]; rat liver microsomes, 0.5 μM
  CLint, mic: 6.21 mL/min/g liver
[7]; rat liver microsomes, 0.5 μM, read-out: Scaled CLint, mic
  CLint scaled at 0.5 μM: 224 mL/min/kg
[7]; rat, microsomes
  half-life at 0.5 μM: 10.3 min
[8]
  AhR pathway activation as measured by cyp1a1 gene induction: confirmed
[9]
  half-life at 0.5 μM: 21.3 min
[9]; 0.5 μM
  CLint, hep: 7.80 mL/min/g liver
[9]; read-out: Scaled CLint, hep
  CLint scaled at 0.5 μM: 240 mL/min/kg
IL17A mRNA
  inhibition of IL17A message expression: ~45%
Minipig Plasma Proteins
  recovery at 4 h, 2 μM: 95.6%
Minipig Plasma Proteins; 2 μM
  % Unbound Replicate: 2.52% and 1.57%
  Mean % Stability at 4 hrs: 107%
[10]; read-out: % Unbound Mean (% CV)
  fraction unbound at 4 h, 2 μM: 0.0198
[10]; read-out: % Unbound Replicate
  fraction unbound at 4 h, 2 μM: 0.0187
[10]; read-out: Mean % Bound (converted)
  fraction unbound at 4 h, 2 μM: 0.02
